Experimental data reported in the supplement of paper PMC10307832.

Key:
Experiment in all cases: relative viability (nuclei count vs DMSO), 5 days (fraction); higher = more cells survive
[1] = compound: O=C(NCCCNc1nc(Nc2cccc(NC(=O)N3CCCC3)c2)ncc1I)c1cccs1 [BX 795] + CC1(C)CCC(c2ccc(Cl)cc2)=C(CN2CCN(c3ccc(C(=O)NS(=O)(=O)c4ccc(N[C@H](CCN5CCOCC5)CSc5ccccc5)c(S(=O)(=O)C(F)(F)F)c4)cc3)CC2)C1 [Navitoclax] (partner 0.5 µM)
Procedure, shortened: (§1)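 For relative viability, nuclei counts in treated wells were divided by those in vehicle wells. Lung cancer cell lines had been pin-tool dosed in 1536-well plates the day after seeding and cultured for 5 days, then fixed and stained in one step (final 0.05% Triton X-100, 1% formaldehyde, 1 ug/ml Hoechst) and imaged at 4×. Doses were one drug alone or a fixed anchor-drug dose plus five library-drug doses (not always all listed) in √10 steps, and values are duplicate-plate medians.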

[2] = compound: O=C(NCCCNc1nc(Nc2cccc(NC(=O)N3CCCC3)c2)ncc1I)c1cccs1 [BX 795] + Nc1ncn([C@H]2C[C@H](O)[C@@H](CO)O2)c(=O)n1 [Decitabine] (partner 2 µM)
Procedure, shortened: as §1

[3] = compound: O=C(NCCCNc1nc(Nc2cccc(NC(=O)N3CCCC3)c2)ncc1I)c1cccs1 [BX 795] + O=C(CCCCCCC(=O)Nc1ccccc1)NO [Vorinostat] (partner 1 µM)
Procedure, shortened: as §1

[4] = compound: O=C(NCCCNc1nc(Nc2cccc(NC(=O)N3CCCC3)c2)ncc1I)c1cccs1 [BX 795] + CS(=O)(=O)CCNCc1ccc(-c2ccc3ncnc(Nc4ccc(OCc5cccc(F)c5)c(Cl)c4)c3c2)o1 [Lapatinib] (partner 2 µM)
Procedure, shortened: as §1

[5] = compound: O=C(NCCCNc1nc(Nc2cccc(NC(=O)N3CCCC3)c2)ncc1I)c1cccs1 [BX 795] + C[C@]1(O)C[C@@H](c2nc(-c3ccc4ccc(-c5ccccc5)nc4c3)c3c(N)nccn32)C1 [Linsitinib] (partner 1 µM)
Procedure, shortened: as §1

Row | Cell Line | relative viability ([1]; first compound 0.04 µM) | relative viability ([1]; first compound 0.1265 µM) | relative viability ([1]; first compound 0.4 µM) | relative viability ([1]; first compound 1.265 µM) | relative viability ([2]; first compound 0.04 µM) | relative viability ([2]; first compound 0.1265 µM) | relative viability ([2]; first compound 0.4 µM) | relative viability ([2]; first compound 1.265 µM) | relative viability ([3]; first compound 0.04 µM) | relative viability ([3]; first compound 0.1265 µM) | relative viability ([3]; first compound 0.4 µM) | relative viability ([3]; first compound 1.265 µM) | relative viability ([4]; first compound 0.04 µM) | relative viability ([4]; first compound 0.1265 µM) | relative viability ([4]; first compound 0.4 µM) | relative viability ([4]; first compound 1.265 µM) | relative viability ([5]; first compound 0.04 µM) | relative viability ([5]; first compound 0.1265 µM) | relative viability ([5]; first compound 0.4 µM) | relative viability ([5]; first compound 1.265 µM)
1 | NCI-H2405 | 0.827 | 0.848 | 0.588 | 0.7 | 0.869 | 0.742 | 0.693 | 0.722 | 1.01 | 0.809 | 0.951 | 0.821 | 1.21 | 1 | 0.792 | 0.733 | 0.871 | 0.828 | 0.678 | 0.694
2 | NCI-H322M | 1.41 | 1.19 | 1.35 | 1.25 | 0.87 | 0.887 | 0.801 | 0.741 | 0.981 | 0.884 | 1.36 | 1.18 | 0.675 | 0.616 | 0.628 | 0.684 | 0.984 | 1.01 | 1.02 | 0.967
3 | SK-LU-1 | 0.702 | 0.915 | 0.553 | 0.724 | 0.676 | 0.679 | 0.505 | 0.601 | 0.674 | 0.764 | 0.595 | 0.593 | 0.883 | 1.1 | 0.801 | 0.469 | 1.03 | 1.13 | 0.722 | 0.777
4 | PC-3 [JPC-3] | 0.864 | 0.838 | 0.905 | 0.75 | 0.834 |  | 0.907 | 0.725 | 0.766 |  | 0.929 | 0.809 | 0.451 | 0.449 | 0.447 | 0.453 | 1.02 | 1.02 | 0.979 | 0.976
5 | NCI-H727 | 0.45 | 0.535 | 0.471 | 0.37 | 1.23 | 0.943 | 0.845 | 0.905 | 1.29 | 1.25 | 1.14 | 1.21 | 0.737 | 1.01 | 0.735 | 0.637 | 0.294 | 0.247 | 0.277 | 0.24
6 | HARA | 1.13 | 1.13 | 1.24 | 1.13 | 0.618 | 0.578 | 0.684 | 0.553 | 0.523 | 0.595 | 0.447 | 0.482 | 0.714 | 0.564 | 0.753 | 0.697 | 0.896 | 0.966 | 0.916 | 0.795
7 | RERF-LC-KJ | 0.759 | 0.93 | 0.771 | 0.881 | 0.762 | 0.759 | 0.792 | 0.56 |  | 0.667 | 0.59 | 0.541 | 0.865 | 0.764 | 0.886 | 0.792 | 0.881 | 0.891 | 0.94 | 0.874
8 | NCI-H1651 | 1 | 1.13 | 1.04 | 0.932 | 0.801 | 0.624 | 0.6 | 0.645 | 0.553 | 0.478 | 0.548 | 0.541 | 0.756 | 0.801 | 0.764 | 0.64 | 0.999 | 1.1 | 1.02 | 0.831
